Results reported in patent US20250213700A1, “COMPOUNDS, COMPOSITIONS, AND METHODS FOR CELL-SPECIFIC PHARMACOLOGY” (Duke University, priority 2022, published 2025).

Columns and labels:
[1] = target: T1, HTP in D1 cells of left dorsal striatum (Rhodococcus rhodochrous, UniProt P0A3G2, A155T/A167V/A172T/A224E/C128F/C176G/D78G/E160K/E257K/H272N/K175M/K195N/L47V/L88M/N227D/S58T/T264A/Y273L/Y87F); test: histology of tracer dye capture in dorsal striatum; assay type: in vivo, mouse; settings: 3 µM dye+30 µM drug, histology 24 hr later
T1 construct: SSnlg signal peptide (residues 1-49 of mouse neuroligin-1) (N); Thy1 GPI anchor signal (C); expressed in transfected cells; host or cells: mouse neurons transduced in vivo with AAV-DIO-+HTPGPI (D1-Cre dorsal striatum; PV::cre retinal ganglion cells)
T1 sequence (P0A3G2 other isoform, or with tags, fused parts or gaps with the stated changes): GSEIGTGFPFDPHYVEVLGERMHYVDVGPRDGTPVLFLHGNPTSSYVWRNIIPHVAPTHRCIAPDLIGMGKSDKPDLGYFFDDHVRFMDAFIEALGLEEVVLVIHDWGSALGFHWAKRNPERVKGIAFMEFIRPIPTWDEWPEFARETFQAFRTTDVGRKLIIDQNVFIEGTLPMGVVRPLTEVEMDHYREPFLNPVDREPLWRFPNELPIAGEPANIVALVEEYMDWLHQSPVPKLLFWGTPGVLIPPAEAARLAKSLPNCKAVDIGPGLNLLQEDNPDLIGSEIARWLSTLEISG
Method: FIG. 3A-3F show quantitative engagement of the DART.2 platform. (FIG. 3A) Mice with ^+HTP or ^ddHTP in D1 cells of left dorsal striatum. Open field (1 hr) before and after Alexa488.1^DART.2+YM90K.1^DART.2 (3 µM dye+30 µM drug, 1 μL in 10 min). Histology performed 24 hr later. Left, dTomato expression and Alexa488.1^DART.2 capture from a ^+HTP mouse. […] Right, open-field turning vs dye capture. […] Dye capture can be used as a behavior-independent inclusion criterion (shading), allowing exclusion of 4 ^+HTP mice in this dataset. (FIG. 3B) Older technology lacked tracer^DART. Here, an estimate of technical success with a non-DART dye (fluorogold) was attempted and a numerical algorithm dye-virus overlap was estimated. […] (FIG. 3C and FIG. 3D) Characterization in live mice expressing HTP in dSPNs of the left dorsal striatum. Alexa^DART.2 co-infused with YM90^KDART.2 ligand provided permanent marker of drug capture, tight correspondence between histology and behavioral potency, and 3-fold increase in behavioral potency in comparison to its predecessor. (FIG. 3E and FIG. 3F) YM90^KDART.1 in live mice for comparison with above.
Histology. […] Images were analyzed for pixel intensity using MATLAB.
These advances were combined in a mouse locomotor assay. […] Mice were perfused for histology 24 hrs later, and quantitative measurement of the integrated Alexa capture over the dorsal striatum was performed. […]

[2] = biodistribution to cortex after lateral ventricle infusion (wide-field fluorescence through cranial window); assay type: in vivo, mouse; settings: -HTP mice, high dose into lateral ventricle
Text: To maintain control of the ambient drug concentration in vivo, thus far a cannula was implanted in close proximity to the desired brain target. (FIG. 5) However, optical and electrical brain interfaces often occupy this precious real estate. For example, cranial window technologies, in which a portion of the skull is replaced with a glass window, have become instrumental in studying the neocortex. Application of drugs through a glass window remains an unsolved problem, as access ports will generally close due to scarring, and temporary removal of the window can compromise the preparation. Thus, it was asked whether DART.2 could enable dosing from a distance via the cerebrospinal fluid (CSF). Delivery via the cisterna magna was first explored, given reports that dextran tracers delivered at this site achieve rapid biodistribution throughout the neocortex parenchyma. Although there was some preliminary success with this approach, it was found difficult to establish mechanically stable cannulation of the cisterna magna, owing to its position below the base of the skull and to the mobility of the neck muscles. […] Following surgical recovery, a high dose of Alexa647.1DART.2 was fused into the LV (dose, volume) and monitored wide-field fluorescence intensity through the cranial window. Fluorescence intensity peaked 2 hr later, and largely cleared by 24 hours (i2055,i2056). […]

[3] = test system: +HTP somatostatin interneurons and -HTP neurons of V1 visual cortex; test: 2P calcium imaging of V1 visual responses after contralateral ventricle infusion, SOM-Cre mice; assay type: in vivo, mouse; settings: infused with YM90K.1DART.2 into contralateral ventricle, widefield fluorescence
Method: Top left: Mice expressing pan-neuronal GCaMP8s with SOM-specific ^+HTP. Window over V1. DART delivered via the contralateral ventricle. Bottom left: In-vivo and ex-vivo expression and dye capture. Right: Mice presented oriented visual gratings, 2P Ca^2+ imaging obtained before and 5-6 hr after infusion of 0.3 nmole Alexa647.1^DART.2+3 nmole YM90K.1^DART.2 (2 μL volume) into the contralateral ventricle.
Next, it was examined whether this strategy could deliver a pharmacologically active DART to genetically defined cells. A surgery was performed in which AAV DIO +HTPGPI was injected into the V1 visual cortex of SOM-Cre mice for cell-specific expression in somatostatin interneurons, along with a co-injected AAV-GCaMP8s virus for pan-neuronal neural activity monitoring. A cannula was implanted in the contralateral ventricle, and glass window over V1. Following surgical recovery, a mixture of YM90K.1DART.2+Alexa647.1DART.2 was infused. […] To test for pharmacological effects, 2P calcium imaging of +HTP and −HTP was performed while mice were presented with oriented gratings. A reduction in +HTP visual response was apparent 4 hours post DART infusion. This reduction persisted even after 24 hours post infusion.

[4] = target: T2, HTP on retinal ganglion cells (Rhodococcus rhodochrous, UniProt P0A3G2, A155T/A167V/A172T/A224E/C128F/C176G/D78G/E160K/E257K/H272N/K175M/K195N/L47V/L88M/N227D/S58T/T264A/Y273L/Y87F); test: tracer dye capture on retinal ganglion cells; assay type: cell-based, mouse; settings: 30 nM, 15 min, after washout
T2 construct: SSnlg signal peptide (residues 1-49 of mouse neuroligin-1) (N); Thy1 GPI anchor signal (C); expressed in transfected cells; host or cells: mouse neurons transduced in vivo with AAV-DIO-+HTPGPI (D1-Cre dorsal striatum; PV::cre retinal ganglion cells)
T2 sequence (P0A3G2 other isoform, or with tags, fused parts or gaps with the stated changes): as above
Method: FIG. 6A-6C show bidirectional manipulation of AMPAR and GABAAR neurotransmission. (FIG. 6A) Viral strategy (top panel). Intravitreal AAV7m8-DIO-HTPGPI-2A-dTomao achieves retinal ganglion cell (RGC) expression in PV::cre mice. Experimental overview (second panel from the top to bottom panel). Top: whole retina; synaptic current is evoked (stim) and recorded (voltage-clamp of dTomato+ RGC), with ionic and pharmaceutical conditions chosen to isolate the AMPAR or GABAAR. A 10 min baseline is followed by 15 min application of 300 nM Rx^DART.2+30 nM Alexa^647.1DART.2. […] (FIG. 6B) CMPDA.2^DART.2 (left). Electropositive spacer (PDB 3RNN). […] EPSC waveform before and after CMPDA.2^DART.2. AMPAR structural model (middle) (composite of PDB 5WEO, 3RNN, and 1FTL). Cylinder depicts cell membrane. CMPDA.2^DART.2 binds within an inter-clamshell interface (2 per receptor). YM90K.1^DART.2 binds the orthosteric glutamate binding site in the clamshell (4 per receptor). YM90K.1^DART.2 (right). […]
Next it was asked whether bidirectional modulation of the AMPAR and GABAAR could be achieved in the same cell type. A preparation was focused on in which electrophysiology is the primary readout, enabling resolution of the amplitude and millisecond time-constant of synaptic transmission. […] A whole-mount retina was later prepared and evoked synaptic currents were measured under conditions that isolate the AMPAR or GABAAR. […]

SMILES	dye capture, ddHTP mice [1]	time by which fluorescence largely cleared [2]	time to peak fluorescence intensity over cortex [2]	time for DART capture to reach steady state [3]	dye capture on +HTP cells [4]	dye capture on ddHTP or -HTP cells [4]
COc1cc(CCCCl)ccc1CCOCCNC(=O)c1ccc(CNC(=O)CCOCCOCCOCCOCCOCCOCCOCCOCCOCCOCCOCCOCCOCCOCCOCCOCCOCCOCCOCCOCCOCCOCCOCCOCCOCCOCCOCCOCCOCCOCCOCCOCCOCCOCCOCCOCCn2cc(CNC(=O)c3ccc(-c4c5ccc(=N)c(S(=O)(=O)O)c-5oc5c(S(=O)(=O)O)c(N)ccc45)c(C(=O)O)c3)nn2)cc1 [Alexa488.1^DART.2, 6-amino-9-(2-carboxy-4-(((1-(1-(4-((2-(4-(3-chloropropyl)-2-methoxyphenethoxy)ethyl)carbamoyl)phenyl)-3-oxo-6,9, 12, 15, 18, 21, 24, 27, 30, 33, 36, 39, 42, 45, 48, 51, 54, 57, 60, 63, 66, 69, 72, 75, 78, 81, 84, 87, 90, 93, 96, 99, 102, 105, 108, 111-hexatriacontaoxa-2-azatridecahectan-113-yl)-1H-1,2,3-triazol-4-yl)methyl)carbamoyl)phenyl)-3-iminio-5-sulfo-3H-xanthene-4-sulfonate]	No dye capture detected	–	–	–	–	–
COc1cc(CCCCl)ccc1CCOCCNC(=O)c1ccc(CNC(=O)CCOCCOCCOCCOCCOCCOCCOCCOCCOCCOCCOCCOCCOCCOCCOCCOCCOCCOCCOCCOCCOCCOCCOCCOCCOCCOCCOCCOCCOCCOCCOCCOCCOCCOCCOCCOCCn2cc(COCCOCCOCCOCCOCCOCCNC(=O)CCCCCC3(C)\C(=C/C=C/C=C/C4=[N+](CCCS(=O)(=O)O)c5ccc(S(=O)(=O)[O-])cc5C4(C)C)N(CCCS(=O)(=O)O)c4ccc(S(=O)(=O)O)cc43)nn2)cc1 (stereo not drawn) [Alexa647.1DART.2]	–	≤ 24 h	2 h	4 to 8 h	robust capture	no detectible capture
